Assay results taken from ChEMBL document CHEMBL5154925, “Design and Optimization of Thienopyrimidine Derivatives as Potent and Selective PI3Kδ Inhibitors for the Treatment of B-Cell Malignancies” (J Med Chem, 2022).
Activity calls are given as the source filed them. The rule behind the calls is not given here.

Columns and labels:
[1] = Microsomal stability in mouse liver microsomes assessed as intrinsic clearance; assay type: ADME, Microsome; settings: read-out: CLH
[2] = system: Pfeiffer; assay: Induction of apoptosis in human Pfeiffer cells assessed as viable […] cells at 10 uM incubated for 48 hrs by annexin V-FITC staining based flow cytometry (reference value: 81.14 %); assay type: functional
[3] = biological target: Phosphatidylinositol 4,5-bisphosphate 3-kinase catalytic subunit beta isoform (Homo sapiens, UniProt P42338); assay: Inhibition of PI3Kbeta (unknown origin) using PIP2 as substrate measured after 1 hr in presence of ATP by ADP-glo luminescence assay
Sequence of Phosphatidylinositol 4,5-bisphosphate 3-kinase catalytic subunit beta isoform (P42338 whole entry, canonical isoform): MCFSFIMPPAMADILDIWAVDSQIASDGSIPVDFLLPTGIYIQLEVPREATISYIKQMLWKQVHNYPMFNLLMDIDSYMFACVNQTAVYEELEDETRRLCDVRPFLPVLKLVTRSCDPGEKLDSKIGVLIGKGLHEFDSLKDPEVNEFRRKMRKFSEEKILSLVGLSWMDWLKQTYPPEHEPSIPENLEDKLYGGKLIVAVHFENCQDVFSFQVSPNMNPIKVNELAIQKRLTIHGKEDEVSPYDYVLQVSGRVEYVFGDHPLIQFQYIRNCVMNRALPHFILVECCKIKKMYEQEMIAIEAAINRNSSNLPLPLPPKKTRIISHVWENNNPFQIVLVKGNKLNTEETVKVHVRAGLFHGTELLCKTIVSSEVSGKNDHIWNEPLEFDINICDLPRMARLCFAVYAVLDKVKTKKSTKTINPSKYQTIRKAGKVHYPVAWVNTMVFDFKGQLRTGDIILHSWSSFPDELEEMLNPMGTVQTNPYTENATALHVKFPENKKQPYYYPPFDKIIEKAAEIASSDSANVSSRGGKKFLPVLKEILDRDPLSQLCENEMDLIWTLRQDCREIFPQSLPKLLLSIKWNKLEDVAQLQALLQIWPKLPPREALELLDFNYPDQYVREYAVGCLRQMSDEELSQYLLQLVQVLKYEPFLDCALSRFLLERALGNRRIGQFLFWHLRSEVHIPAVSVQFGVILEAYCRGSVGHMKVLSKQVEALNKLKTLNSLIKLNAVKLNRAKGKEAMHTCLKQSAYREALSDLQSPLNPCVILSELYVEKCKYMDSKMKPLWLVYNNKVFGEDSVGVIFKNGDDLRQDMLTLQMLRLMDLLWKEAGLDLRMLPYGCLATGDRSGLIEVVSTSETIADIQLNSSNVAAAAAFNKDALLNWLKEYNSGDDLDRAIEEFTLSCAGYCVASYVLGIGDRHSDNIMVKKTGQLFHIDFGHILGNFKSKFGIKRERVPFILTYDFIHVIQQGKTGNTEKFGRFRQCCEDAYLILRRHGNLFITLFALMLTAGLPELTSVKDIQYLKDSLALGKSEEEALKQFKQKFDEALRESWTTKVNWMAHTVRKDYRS

[4] = Half life in ICR mouse at 3 mg/kg, iv measured upto 24 hrs by LC-MS/MS analysis; assay type: ADME, organism-based; settings: in vivo
[5] = system: SUD4; assay: Antiproliferative activity against human SU-DHL-4 cells assessed as cell growth inhibition incubated for 96 hrs by cell titer glo assay; assay type: functional, cell-based; settings: SU-DHL-4, 96 h
[6] = biological target: Phosphatidylinositol 4,5-bisphosphate 3-kinase catalytic subunit alpha isoform (Mus musculus, UniProt P42337); assay: Inhibition of PI3Kalpha in IGF-1 stimulated mouse C2C12 cells incubated for 10 mins by AlphaLISA assay; assay type: cell-based
Sequence of Phosphatidylinositol 4,5-bisphosphate 3-kinase catalytic subunit alpha isoform (P42337 whole entry, canonical isoform): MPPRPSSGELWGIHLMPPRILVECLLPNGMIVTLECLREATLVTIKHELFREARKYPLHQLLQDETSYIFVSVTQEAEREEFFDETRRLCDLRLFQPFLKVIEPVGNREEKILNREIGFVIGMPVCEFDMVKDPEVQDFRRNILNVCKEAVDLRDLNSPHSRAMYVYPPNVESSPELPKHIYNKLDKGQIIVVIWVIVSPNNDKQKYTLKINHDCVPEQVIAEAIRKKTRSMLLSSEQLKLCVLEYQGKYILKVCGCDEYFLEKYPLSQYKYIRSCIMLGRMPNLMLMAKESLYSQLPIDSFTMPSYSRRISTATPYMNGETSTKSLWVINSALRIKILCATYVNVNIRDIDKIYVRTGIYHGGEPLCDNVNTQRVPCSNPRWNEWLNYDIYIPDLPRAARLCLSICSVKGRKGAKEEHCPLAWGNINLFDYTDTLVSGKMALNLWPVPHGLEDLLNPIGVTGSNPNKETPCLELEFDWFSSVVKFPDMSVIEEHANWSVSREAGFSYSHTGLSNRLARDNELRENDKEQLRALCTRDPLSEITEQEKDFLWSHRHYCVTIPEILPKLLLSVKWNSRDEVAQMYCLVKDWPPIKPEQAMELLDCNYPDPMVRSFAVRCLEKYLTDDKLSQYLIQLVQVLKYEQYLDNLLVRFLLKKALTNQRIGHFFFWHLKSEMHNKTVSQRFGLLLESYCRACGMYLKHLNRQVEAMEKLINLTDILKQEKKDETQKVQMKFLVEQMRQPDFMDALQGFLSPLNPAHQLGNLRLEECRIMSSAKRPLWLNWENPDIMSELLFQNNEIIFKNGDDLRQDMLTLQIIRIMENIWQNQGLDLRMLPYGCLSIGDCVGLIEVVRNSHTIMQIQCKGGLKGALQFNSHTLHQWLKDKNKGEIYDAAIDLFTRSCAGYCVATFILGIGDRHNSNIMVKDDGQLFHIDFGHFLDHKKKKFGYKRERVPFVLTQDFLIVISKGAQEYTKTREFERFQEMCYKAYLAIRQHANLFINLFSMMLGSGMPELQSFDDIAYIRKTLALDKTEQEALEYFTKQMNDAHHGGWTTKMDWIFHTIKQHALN

[7] = biological target: Phosphatidylinositol 4,5-bisphosphate 3-kinase catalytic subunit gamma isoform (Mus musculus, UniProt Q9JHG7); assay: Inhibition of PI3Kgamma in C5a stimulated mouse RAW264.7 cells incubated for 10 mins by AlphaLisa assay; assay type: cell-based
Sequence of Phosphatidylinositol 4,5-bisphosphate 3-kinase catalytic subunit gamma isoform (Mus musculus, UniProt Q9JHG7) (Q9JHG7 whole entry, canonical isoform): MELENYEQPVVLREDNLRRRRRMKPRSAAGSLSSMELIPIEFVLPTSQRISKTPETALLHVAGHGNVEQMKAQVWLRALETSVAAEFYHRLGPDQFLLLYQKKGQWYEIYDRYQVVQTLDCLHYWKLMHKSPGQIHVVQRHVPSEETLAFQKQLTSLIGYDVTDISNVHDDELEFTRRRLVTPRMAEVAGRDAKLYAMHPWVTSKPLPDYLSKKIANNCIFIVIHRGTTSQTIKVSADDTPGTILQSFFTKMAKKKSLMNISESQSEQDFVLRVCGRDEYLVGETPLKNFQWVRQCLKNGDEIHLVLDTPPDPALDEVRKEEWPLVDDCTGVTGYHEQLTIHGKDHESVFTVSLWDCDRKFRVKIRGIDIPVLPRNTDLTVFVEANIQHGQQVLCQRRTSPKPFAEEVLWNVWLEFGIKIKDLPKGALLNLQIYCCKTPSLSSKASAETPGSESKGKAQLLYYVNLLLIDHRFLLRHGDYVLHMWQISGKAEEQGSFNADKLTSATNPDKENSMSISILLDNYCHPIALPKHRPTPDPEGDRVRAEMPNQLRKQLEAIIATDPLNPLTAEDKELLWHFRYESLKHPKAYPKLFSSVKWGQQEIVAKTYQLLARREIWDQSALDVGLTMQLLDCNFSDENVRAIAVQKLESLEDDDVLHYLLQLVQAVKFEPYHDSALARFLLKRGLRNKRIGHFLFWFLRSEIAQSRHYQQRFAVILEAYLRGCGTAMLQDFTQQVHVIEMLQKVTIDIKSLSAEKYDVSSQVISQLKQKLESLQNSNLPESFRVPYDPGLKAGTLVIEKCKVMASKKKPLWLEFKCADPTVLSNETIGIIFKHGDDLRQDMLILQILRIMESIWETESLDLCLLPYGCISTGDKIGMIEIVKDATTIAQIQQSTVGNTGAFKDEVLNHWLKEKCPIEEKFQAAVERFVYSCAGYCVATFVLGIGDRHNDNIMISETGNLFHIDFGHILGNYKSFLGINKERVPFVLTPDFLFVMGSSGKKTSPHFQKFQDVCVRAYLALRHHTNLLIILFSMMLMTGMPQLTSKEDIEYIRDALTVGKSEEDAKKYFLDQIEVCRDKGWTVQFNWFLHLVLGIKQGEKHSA

[8] = system: SU-DHL-6; assay: Induction of apoptosis in human SU-DHL-6 cells assessed as apoptotic rate at 50 uM incubated for 48 hrs by annexin V-FITC staining based flow cytometry; assay type: functional
[9] = Microsomal stability in mouse liver microsomes assessed as half life; assay type: ADME, Microsome
[10] = system: Pfeiffer; assay: Induction of apoptosis in human Pfeiffer cells assessed as viable […] cells at 50 uM incubated for 48 hrs by annexin V-FITC staining based flow cytometry (reference value: 81.14 %); assay type: functional
[11] = Half life in ICR mouse at 30 mg/kg, po measured upto 24 hrs by LC-MS/MS analysis; assay type: ADME, organism-based; settings: in vivo
[12] = system: DOHH-2; assay: Antiproliferative activity against human DOHH-2 cells assessed as cell growth inhibition incubated for 96 hrs by cell titer glo assay; assay type: functional, cell-based; settings: DOHH-2, 96 h
[13] = AUC (0 to infinity) in ICR mouse at 30 mg/kg, po measured upto 24 hrs by LC-MS/MS analysis; assay type: ADME, organism-based; parameters: dose 30 mg/kg, time < 24 hrs, route po; settings: in vivo
[14] = Apparent volume of distribution in ICR mouse at 3 mg/kg, iv measured upto 24 hrs by LC-MS/MS analysis; assay type: ADME, organism-based; settings: in vivo, read-out: Vz
[15] = Oral bioavailability in ICR mouse at 30 mg/kg measured upto 24 hrs by LC-MS/MS analysis; assay type: ADME, organism-based; settings: in vivo
[16] = system: Pfeiffer; assay: Antitumour activity against human Pfeiffer cells xenografted in nude mouse assessed as reduction in Ki67 expression in tumor at 5 mg/kg, ip BID for 21 days by immunohistochemical analysis; assay type: functional, organism-based; settings: time 21.0 day
[17] = biological target: Serine/threonine-protein kinase mTOR (Homo sapiens, UniProt P42345); assay: Inhibition of mTOR (unknown origin)
[18] = biological target: T1, Phosphatidylinositol 4,5-bisphosphate 3-kinase catalytic subunit delta isoform (Homo sapiens, UniProt O00329); assay: Inhibition of PI3Kdelta in IgM stimulated human Raji cells incubated for 10 mins by AlphaLISA assay; assay type: cell-based
T1 sequence (O00329 whole entry): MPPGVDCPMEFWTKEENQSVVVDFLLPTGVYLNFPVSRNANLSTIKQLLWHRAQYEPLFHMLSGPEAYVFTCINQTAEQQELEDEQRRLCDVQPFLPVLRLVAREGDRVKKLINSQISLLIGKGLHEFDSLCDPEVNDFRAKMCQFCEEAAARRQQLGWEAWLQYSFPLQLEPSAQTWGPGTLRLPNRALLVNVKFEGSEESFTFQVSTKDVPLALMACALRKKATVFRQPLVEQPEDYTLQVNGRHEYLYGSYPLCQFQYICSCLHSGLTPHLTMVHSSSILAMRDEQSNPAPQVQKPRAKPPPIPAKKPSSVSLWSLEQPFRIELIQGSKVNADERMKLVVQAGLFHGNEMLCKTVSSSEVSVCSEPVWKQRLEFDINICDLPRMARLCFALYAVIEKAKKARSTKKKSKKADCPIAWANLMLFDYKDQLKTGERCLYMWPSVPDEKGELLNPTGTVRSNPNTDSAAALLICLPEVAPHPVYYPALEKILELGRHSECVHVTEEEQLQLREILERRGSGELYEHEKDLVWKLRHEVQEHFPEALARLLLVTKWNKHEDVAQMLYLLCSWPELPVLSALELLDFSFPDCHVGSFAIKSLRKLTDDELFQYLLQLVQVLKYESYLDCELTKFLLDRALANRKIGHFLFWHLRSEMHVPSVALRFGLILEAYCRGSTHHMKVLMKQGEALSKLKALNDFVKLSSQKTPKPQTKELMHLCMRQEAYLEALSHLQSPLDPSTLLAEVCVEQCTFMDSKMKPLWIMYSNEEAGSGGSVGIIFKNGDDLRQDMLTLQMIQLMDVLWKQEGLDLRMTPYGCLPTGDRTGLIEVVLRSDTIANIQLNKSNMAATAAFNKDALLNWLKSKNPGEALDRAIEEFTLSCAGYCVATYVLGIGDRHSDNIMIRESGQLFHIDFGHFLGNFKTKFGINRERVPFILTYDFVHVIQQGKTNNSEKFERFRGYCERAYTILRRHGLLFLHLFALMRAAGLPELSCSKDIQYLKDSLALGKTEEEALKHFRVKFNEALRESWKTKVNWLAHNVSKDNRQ

[19] = system: Pfeiffer; assay: Induction of cell cycle arrest in human Pfeiffer cells assessed as accumulation at G0/G1 phase at 2 to 50 uM after 24 hrs by propidium iodide and RNAase staining based flow cytometric analysis; assay type: functional; settings: dose 2-50 µM
[20] = system: SU-DHL-6; assay: Induction of cell cycle arrest in human SU-DHL-6 cells assessed as accumulation at G0/G1 phase at 2 to 50 uM after 24 hrs by propidium iodide and RNAase staining based flow cytometric analysis; assay type: functional; settings: dose 2-50 µM
[21] = system: Pfeiffer; assay: Inhibition of P13K signaling pathway in human Pfeiffer cells assessed as reduction in AKT phosphorylation at S473 residue incubated for 4 hrs by Western blot analysis; assay type: cell-based; settings: dose 2-50 µM, DDE = dose-dependent effect
[22] = system: Pfeiffer; assay: Induction of apoptosis in human Pfeiffer cells assessed as necrotic cells at 50 uM incubated for 48 hrs by annexin V-FITC staining based flow cytometry (reference value: 6.62 %); assay type: functional
[23] = system: Pfeiffer; assay: Antitumor activity against human Pfeiffer cells xenografted in nude mouse assessed as tumor growth inhibition at 75 mg/kg, po BID for 21 days and measured twice weekly; assay type: functional; settings: 504 h, time 21 day, read-out: TGI
[24] = biological target: Phosphatidylinositol 4,5-bisphosphate 3-kinase catalytic subunit gamma isoform (Homo sapiens, UniProt P48736); assay: Inhibition of PI3Kgamma (unknown origin) using PIP2 as substrate measured after 1 hr in presence of ATP by ADP-glo luminescence assay
Sequence of Phosphatidylinositol 4,5-bisphosphate 3-kinase catalytic subunit gamma isoform (Homo sapiens, UniProt P48736) (P48736 whole entry, canonical isoform): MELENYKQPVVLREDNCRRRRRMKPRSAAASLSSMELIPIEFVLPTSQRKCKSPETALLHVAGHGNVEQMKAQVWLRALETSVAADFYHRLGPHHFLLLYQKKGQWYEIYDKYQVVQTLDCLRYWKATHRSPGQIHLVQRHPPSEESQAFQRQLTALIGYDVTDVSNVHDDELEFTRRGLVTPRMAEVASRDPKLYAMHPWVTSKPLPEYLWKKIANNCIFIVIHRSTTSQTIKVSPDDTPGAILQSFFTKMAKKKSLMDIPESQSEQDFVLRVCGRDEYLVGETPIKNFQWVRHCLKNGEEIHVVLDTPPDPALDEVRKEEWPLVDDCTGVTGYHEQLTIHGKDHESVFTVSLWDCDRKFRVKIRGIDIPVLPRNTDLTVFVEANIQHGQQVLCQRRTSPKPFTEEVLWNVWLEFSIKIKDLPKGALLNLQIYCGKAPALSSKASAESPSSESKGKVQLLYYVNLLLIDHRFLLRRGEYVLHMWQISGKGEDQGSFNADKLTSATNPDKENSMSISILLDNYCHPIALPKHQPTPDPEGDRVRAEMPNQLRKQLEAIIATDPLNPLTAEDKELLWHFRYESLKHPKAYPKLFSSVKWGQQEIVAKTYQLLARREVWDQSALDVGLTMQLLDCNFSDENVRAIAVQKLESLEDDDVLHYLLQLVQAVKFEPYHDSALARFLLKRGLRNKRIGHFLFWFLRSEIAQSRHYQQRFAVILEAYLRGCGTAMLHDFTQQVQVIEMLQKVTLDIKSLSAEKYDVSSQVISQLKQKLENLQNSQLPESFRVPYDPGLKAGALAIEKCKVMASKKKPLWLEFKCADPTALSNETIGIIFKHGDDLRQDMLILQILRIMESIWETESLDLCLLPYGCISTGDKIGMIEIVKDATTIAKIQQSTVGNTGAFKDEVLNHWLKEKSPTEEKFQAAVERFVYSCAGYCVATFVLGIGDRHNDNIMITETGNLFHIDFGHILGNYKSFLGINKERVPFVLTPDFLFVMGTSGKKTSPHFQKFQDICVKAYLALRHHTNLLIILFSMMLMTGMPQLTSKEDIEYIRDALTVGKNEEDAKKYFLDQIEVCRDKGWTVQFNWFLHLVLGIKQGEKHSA

[25] = Plasma protein binding in mouse; assay type: ADME, cell-free; settings: read-out: PPB (converted)
[26] = system: Pfeiffer; assay: Antitumour activity against human Pfeiffer cells xenografted in nude mouse assessed as reduction in Ki67 expression in tumor at 75 mg/kg, po BID for 21 days by immunohistochemical analysis; assay type: functional, organism-based; settings: time 21.0 day

CLint scaled [1]: 60.3 mL/min/kg
IC50 [3]: 0.972 µM
half-life [4]: 1.73 h
IC50 [6]: 50.2 µM
IC50 [7]: 8.06 µM
half-life [9]: 1.51 h
half-life [11]: 0.89 h
AUC(0-inf) [13]: 1030 ng·h/mL
Vd [14]: 5.49 L/kg
bioavailability [15]: 7.49%
IC50 [17]: > 10 µM
IC50 [18]: 0.137 µM
IC50 [24]: 2.68 µM
fraction unbound [25]: 0.029
SMILES: CCC(=O)N1CC[C@H](Nc2ncnc3sc(-c4cnc(OC)c(OC)c4)cc23)C1
Activity [2]: 65.34%
IC50 [5]: 3.75 µM
Activity [8]: >50%
Activity [10]: 33.75%
IC50 [12]: 10.6 µM
Activity [16]: Active
Activity [19]: Active
Activity [20]: Active
inhibition [21]: Dde
Activity [22]: 7.18%
inhibition in vivo at 75 mg/kg [23]: 65.5%
Activity [26]: Active
